In ChEMBL document CHEMBL1127977, “Benzolactam growth hormone secretagogues: Carboxamides as replacements for the 2-tetrazole moiety of L-692,429” (1994):

Organism: Rattus norvegicus
Experiment: Tested in vitro for growth hormone release in rat pituitary cells
Format: functional
Conditions: Pituitary gland cell, read-out: ED50 (the source's name)

`CC(C)(N)CC(=O)N[C@@H]1CCc2ccccc2N(Cc2ccc(-c3ccccc3C(=O)NCCCCCO)cc2)C1=O` and `CC(C)(N)CC(=O)N[C@@H]1CCc2ccccc2N(Cc2ccc(-c3ccccc3C(=O)NCCCCO)cc2)C1=O` are the same in EC50: 10 nM for the first, 10 nM for the second.

Going from `CCN(CC)C(=O)c1ccccc1-c1ccc(CN2C(=O)[C@H](NC(=O)CC(C)(C)N)CCc3ccccc32)cc1` to `CCNC(=O)c1ccccc1-c1ccc(CN2C(=O)[C@H](NC(=O)CC(C)(C)N)CCc3ccccc32)cc1`, the EC50 falls from 2000 nM to 90 nM (22-fold).

Compared with `CC(C)(N)CC(=O)N[C@@H]1CCc2ccccc2N(Cc2ccc(-c3ccccc3C(=O)NCc3ccc(O)cc3)cc2)C1=O`, `COc1ccc(CNC(=O)c2ccccc2-c2ccc(CN3C(=O)[C@H](NC(=O)CC(C)(C)N)CCc4ccccc43)cc2)cc1` is 6.7-fold higher in EC50: 300 nM for the first, 2000 nM for the second.

Going from `CC(C)(N)CC(=O)N[C@@H]1CCc2ccccc2N(Cc2ccc(-c3ccccc3C(=O)NCCO)cc2)C1=O` to `CC(C)(N)CC(=O)N[C@@H]1CCc2ccccc2N(Cc2ccc(-c3ccccc3C(=O)NCCCO)cc2)C1=O`, the EC50 falls from 3000 nM to 400 nM (7.5-fold).

Going from `CC(C)(N)CC(=O)N[C@@H]1CCc2ccccc2N(Cc2ccc(-c3ccccc3-c3nn[nH]n3)cc2)C1=O` to `C[C@@H](O)CNC(C)(C)CC(=O)N[C@@H]1CCc2ccccc2N(Cc2ccc(-c3ccccc3-c3nn[nH]n3)cc2)C1=O` [L-692585], the EC50 falls from 60 nM to 3 nM (20-fold).

Going from `CC(C)(N)CC(=O)N[C@@H]1CCc2ccccc2N(Cc2ccc(-c3ccccc3C(=O)NCc3ccccc3)cc2)C1=O` to `CC(C)(N)CC(=O)N[C@@H]1CCc2ccccc2N(Cc2ccc(-c3ccccc3C(N)=O)cc2)C1=O`, the EC50 falls from 900 nM to 80 nM (11-fold). The second is the more potent here.

First: CCCCCNC(=O)c1ccccc1-c1ccc(CN2C(=O)[C@H](NC(=O)CC(C)(C)N)CCc3ccccc32)cc1
Second: C[C@@H](O)CNC(C)(C)CC(=O)N[C@@H]1CCc2ccccc2N(Cc2ccc(-c3ccccc3C(N)=O)cc2)C1=O
The EC50 of the first is higher: greater than 1000 nM for the first, 4 nM for the second. The second is the more potent here.

First: CC(C)(CC(=O)N[C@@H]1CCc2ccccc2N(Cc2ccc(-c3ccccc3C(N)=O)cc2)C1=O)NC[C@H](O)CO
Second: CC(C)(CC(=O)N[C@@H]1CCc2ccccc2N(Cc2ccc(-c3ccccc3-c3nn[nH]n3)cc2)C1=O)NC[C@H](O)CO
The EC50 of the first is 3.3-fold lower: 3 nM for the first, 10 nM for the second. The first is the more potent here.
